Literature values as cited in US20170106067A1, “COMBINATORIAL IMMUNOTHERAPY FOR PANCREATIC CANCER TREATMENT” (THE JOHNS HOPKINS UNIVERSITY, priority 2014, published 2017).

System: metastatic PDA
Details: Le et al., 2013

Substance: ipilimumab
- clinical anti tumor activity in metastatic PDA patients: failed to demonstrate durable and effective anti tumor activity
